Experiments:
Human betaherpesvirus 5 [1] = test: Antiviral activity against Human cytomegalovirus (AD169) strain(HCMV); type: functional, organism-based
Human betaherpesvirus 5 [2] = test: Cytotoxicity against Human cytomegalovirus (AD169) strain(HCMV); type: functional
Human betaherpesvirus 5 [3] = test: Antiviral activity against clinical isolates of human origin CMV-strain B; type: functional, organism-based
Human betaherpesvirus 5 [4] = test: Antiviral activity against clinical isolates of human origin CMV-strainC; type: functional, organism-based
Human betaherpesvirus 5 [5] = test: Antiviral activity against clinical isolates of human origin CMV-strainA; type: functional, organism-based

SMILES	IC50 (Human betaherpesvirus 5 [1]) [µM]	CC50 (Human betaherpesvirus 5 [2]) [µM]	IC50 (Human betaherpesvirus 5 [3]) [µM]	IC50 (Human betaherpesvirus 5 [4]) [µM]	IC50 (Human betaherpesvirus 5 [5]) [µM]
O=S1(=O)N=C(OCc2ccccc2)c2ccccc2N1Cc1ccccc1	7.9	> 66	–	–	–
O=C1c2ccccc2N(COCc2ccccc2)S(=O)(=O)N1COCc1ccccc1	34	> 57	–	–	–
O=C1c2ccccc2N(Cc2ccccc2Cl)S(=O)(=O)N1COCc1ccccc1	18	> 56	–	–	–
O=C1c2ccccc2N(Cc2ccc(Cl)cc2)S(=O)(=O)N1Cc1ccc(Cl)cc1	3.6	> 60	–	–	–
O=C1c2ccccc2N(Cc2ccc(Cl)cc2)S(=O)(=O)N1Cc1ccccc1	3.6	> 60	1.2	2.4	2.4
O=C1c2ccccc2N(Cc2ccccc2Cl)S(=O)(=O)N1Cc1ccccc1Cl	3.6	> 60	–	–	–
Nc1nc2c(ncn2COC(CO)CO)c(=O)[nH]1 [GANCICLOVIR]	5.9	> 98	3.9	3.9	5.9

Second part, led by results:

IC50 (Human betaherpesvirus 5 [1]) [µM]	SMILES	CC50 (Human betaherpesvirus 5 [2]) [µM]	IC50 (Human betaherpesvirus 5 [3]) [µM]	IC50 (Human betaherpesvirus 5 [4]) [µM]	IC50 (Human betaherpesvirus 5 [5]) [µM]
3.6	O=C1c2ccccc2N(Cc2cccc(Cl)c2)S(=O)(=O)N1Cc1ccccc1	> 60	–	–	–
6.7	O=C1c2ccccc2N(Cc2ccc(Cl)cc2)S(=O)(=O)N1COCc1ccccc1	> 56	–	–	–
4.8	O=C1c2ccccc2N(Cc2ccccc2Cl)S(=O)(=O)N1Cc1ccccc1	> 60	–	–	–
5.2	O=C1c2ccccc2N(Cc2ccccc2)S(=O)(=O)N1Cc1ccccc1	> 66	–	–	–
6	O=C1c2ccccc2N(Cc2ccccc2)S(=O)(=O)N1Cc1ccc(Cl)cc1	> 60	–	–	–
12.1	O=C1c2ccccc2N(Cc2ccccc2)S(=O)(=O)N1Cc1ccccc1Cl	> 60	–	–	–

— ChEMBL document CHEMBL1131869, “Chlorophenylmethyl benzothiadiazine dioxides derivatives: potent human cytomegalovirus inhibitors” (Bioorg Med Chem Lett, 1999)
